Measured values published in patent publication US20240166658A1, “PORPHYRIN DERIVATIVES AND USES THEREOF” (University of Tasmania, priority 2021, published 2024).

Legend:
[1] = Preliminary binding study, colour change
From the text: Preliminary binding studies were undertaken by combining an amide linked porphyrin host molecule (9) and tetrabutylammonium perfluorooctanoate (TBAPFO) in dichloromethane.

[2] = UV-Vis host-guest titration, association constant; format: binding; conditions: host (9) in dichloromethane; triplicate, TBA salt and acid; Bindfit
Protocol: (§1) Path length of the quartz cell was 1 cm. For UV-vis titrations, a stock solution of host was prepared (2.2×10^−3 M) in dichloromethane (DCM) and serially diluted to the required concentrations. Working solutions of tetrabutylammonium (TBA) anion salts or guest molecules were prepared in the same manner Host−guest titrations used solutions of guest prepared in the working concentration of host solution, according to the procedure of Thordarson, 2011.
(§2) UV-vis spectroscopic host−guest titrations were performed in accordance with the methodologies of Thordarson, 2011. Solutions of host in dichloromethane were prepared. Solutions of guest were then prepared in the host solution. Aliquots of guest in host solution were added to host solution and sequentially analysed until a known molar equivalent of guest was added. The amount of guest added per aliquot was ascertained by a preliminary screening experiment; strong association constants required smaller molar equivalents so more information could be collected. By way of example, host (9) responded to 0.1 molar equivalent of PFBA strongly, so an addition of 1 molar equivalent of PFBA would result in a loss of information. The inverse is true for weaker binding interactions. […]
(§3) A host solution of host (9) in dichloromethane was monitored using UV-Vis analysis as 0.5-10 equivalents of each PFAS was added. […]

[3] = UV-Vis host-guest titration, association constant; format: binding; conditions: host (9) in dichloromethane; triplicate, TBA salt and acid; Bindfit; remark: listed apart in the source
Protocol: as §1, §2, §3

[4] = Non-fluorinated and neutral fluorinated guest molecules, UV-Vis; format: binding; conditions: 10 molar equivalents, dichloromethane; immediately and 24 hours later
Protocol: The binding interaction was probed by combining the host (9) with non-fluorinated and neutral fluorinated guest molecules. Solutions of host (9) in dichloromethane were combined with 10 molar equivalents of tetrafluorobenzene and nonanoic acid. Solutions were analysed using UV-Vis spectroscopy (immediately and 24 hours later) to check for any indication of binding.

[5] = UV-Vis host-guest titration, association constant; format: binding; conditions: host (9) in dichloromethane; triplicate, TBA salt and acid; Bindfit; remark: listed apart in the source
Protocol: as §1, §2, §3

[6] = GenX vapour test with host-doped filter paper; conditions: for colour of host-doped paper in tube headspace: one hour
Protocol: A solution of medium chain host (9) (2.20×10^−5 M) in dichloromethane was prepared. Whatman 4 filter papers were soaked/dipped in the host solution and left to air dry on a watch glass. An aqueous solution of GenX™ (1 ppm, 3.03×10^−6 M) was prepared in a glass volumetric flask (1 L). The volumetric flask stopper was removed, and the dried host-doped paper was laid on top the opening.
An aqueous solution of GenX™ (1 ppm, 3.03×10^−6 M) was prepared in a glass volumetric flask (1 L). A solution of medium chain host (2.20×10^−5 M) in dichloromethane was prepared. Whatman 4 filter papers were soaked/dipped in the host solution and left to air dry on a watch glass. The filter papers were cut into strips and adhered to the lids of HDPP tubes. Aqueous samples of GenX™ were diluted to 1 ppm, 1 ppb and 1 ppt and poured into the HDPP tubes. The caps were immediately replaced, and the tubes were left for an hour.

[7] = GenX, water and HDPP tube experiment (biphasic)
Protocol: A solution of medium chain amide host (2.04×10^−5 M) in dichloromethane was added to an aqueous solution of GenX™ (5 ppm, 1.51×10^−5 M 50 mL) in a volumetric flask. […] Both phases were then transferred via pouring to a HDPP tube. The green colour persisted initially but began to reduce with time.

[8] = UV-Vis host-guest titration, association constant; format: binding; conditions: host (9) in dichloromethane; triplicate, TBA salt and acid; Bindfit; remark: listed apart in the source
Protocol: as §1, §2, §3

[9] = UV-Vis host-guest titration, association constant; format: binding; conditions: host (9) in dichloromethane; triplicate, TBA salt and acid; Bindfit; remark: listed apart in the source
Protocol: as §1, §2, §3

Filter paper tests = conditions: aqueous PFOA in the <5 ppm range, dipped or dropped
Protocol: Sensor molecule (9) was dissolved in dichloromethane and filter papers were soaked in the solution. The papers were removed and dried by evaporation. The paper was then dipped into aqueous solutions of PFOA or aqueous solutions were dropped onto the paper. […] The aqueous solutions of PFOA tested were in the <5 ppm range.

[10] = Colorimetric matching of mixed PFCA samples, low concentration
Protocol: In the “low” PFCA concentration experiment, the RGB response values had the greatest rate of change from 0-40 ppb PFOA and appeared to level out between 40-80 ppb PFOA. In that instance, the regression was fit for a host : guest ratio of 0-0.8. To probe the sensor's response to a mixture of PFCAs, samples containing combinations of PFHxA, PFHpA, and PFDA in dichloromethane (7-28 ppb) were prepared and the RGB responses were collected. The PFCA concentrations for the samples were predicted using the PFOA regression (y=0.0591 ln(x)+0.037, R^2=0.9771).
The lowest concentration PFCA sample (7 ppb) was predicted to be ca. 11 ppb (58% error) from the PFOA regression, whilst the higher concentration mixed PFCA samples (14.1 and 28.8 ppb) were predicted to be ca. 16 and 23 ppb (17 and 18% error respectively). Thus, host (12) may be coupled with a phone camera to estimate mixed PFCA concentrations from RGB data with <20% error, or used visually for threshold detection of total PFCA concentrations above 10 ppb.

O=C(Nc1ccccc1-c1c2nc(c(-c3ccccc3NC(=O)C(F)(F)C(F)(F)C(F)(F)C(F)(F)C(F)(F)C(F)(F)C(F)(F)F)c3ccc([nH]3)c(-c3ccccc3NC(=O)C(F)(F)C(F)(F)C(F)(F)C(F)(F)C(F)(F)C(F)(F)C(F)(F)F)c3nc(c(-c4ccccc4NC(=O)C(F)(F)C(F)(F)C(F)(F)C(F)(F)C(F)(F)C(F)(F)C(F)(F)F)c4ccc1[nH]4)C=C3)C=C2)C(F)(F)C(F)(F)C(F)(F)C(F)(F)C(F)(F)C(F)(F)C(F)(F)F [host (9), α,α,α,α-5,10,15,20-tetrakis(2-(pentadecafluorooctanoylamino)phenyl)porphyrin]
colour change of host solution ([1]; addition of solid TBAPFO to red-brown host solution in dichloromethane): changed colour to green | colour change of host solution, biphasic ([1]; host in dichloromethane (0.0124 mmol, 5 mL) and TBAPFO 3 ppm in water (500 mL)): colour change of the host solution could also be observed | K value (averaged association constant Ka) [2]: 392106 | K value (averaged association constant Ka) [3]: 12999 | colorimetric response [4]: no colorimetric response | K value (averaged association constant Ka) [5]: 6585 | colour change of host-doped paper over aqueous GenX ([6]; GenX 1 ppm in water, paper on flask opening): A colour change developed immediately | colour of host-doped paper in tube headspace ([6]; aqueous GenX 1 ppb): A green colour was visible | colour of host-doped paper in tube headspace ([6]; aqueous GenX 1 ppm): A green colour was visible | colour of host solution after transfer to HDPP tube ([7]; after 24 hours): significant reduction in the intensity of the green colour | colour of host solution ([7]; host 2.04×10^−5 M in dichloromethane added to aqueous GenX 5 ppm): immediately became a vibrant green colour | K value (averaged association constant Ka) [8]: 15272 | K value (averaged association constant Ka) [9]: 23968 | colour change of host-soaked filter paper (Filter paper tests): A colour change was discernible

O=C(Nc1ccccc1-c1c2nc(c(-c3ccccc3NC(=O)C(F)(F)C(F)(F)C(F)(F)C(F)(F)C(F)(F)C(F)(F)C(F)(F)C(F)(F)C(F)(F)C(F)(F)C(F)(F)F)c3ccc([nH]3)c(-c3ccccc3NC(=O)C(F)(F)C(F)(F)C(F)(F)C(F)(F)C(F)(F)C(F)(F)C(F)(F)C(F)(F)C(F)(F)C(F)(F)C(F)(F)F)c3nc(c(-c4ccccc4NC(=O)C(F)(F)C(F)(F)C(F)(F)C(F)(F)C(F)(F)C(F)(F)C(F)(F)C(F)(F)C(F)(F)C(F)(F)C(F)(F)F)c4ccc1[nH]4)C=C3)C=C2)C(F)(F)C(F)(F)C(F)(F)C(F)(F)C(F)(F)C(F)(F)C(F)(F)C(F)(F)C(F)(F)C(F)(F)C(F)(F)F [host (12), α,α,α,α-5,10,15,20-tetrakis(2-(tricosafluorododecanoylamino)phenyl) porphyrin]
average ΔE of mixed PFCA samples vs host solution ([10]; 7-28 ppb): > 10 | concentration predicted from PFOA regression ([10]; 7 ppb PFCA sample): ca. 11 ppb | concentration predicted from PFOA regression ([10]; 14.1 ppb mixed PFCA sample): ca. 16 ppb | concentration predicted from PFOA regression ([10]; 28.8 ppb mixed PFCA sample): ~23 ppb | ΔE (Host − PFCA) ([10]; PFCAs 7 ppb): 11 | ΔE (Host − PFCA) ([10]; PFCAs 14 ppb): 11 | ΔE (Host − PFCA) ([10]; PFCAs 28 ppb): 12
